Data published in patent US6875759B1, “Substituted guanidines and the use thereof” (Kadmus Pharmaceuticals, priority 1999, dated 2005).
Where two headings read alike, the source gives them in different places.

Legend:
[1] = tested on: hormone-independent prostate cancer cell line DU145; test: In vitro cytotoxicity, MTS (CellTiter 96 Aqueous Proliferation Assay), prostate cancer cells; format: cell-based, human; conditions: 7 days exposure, MTS, dose causing death to 50% of cells, read-out: Cell Survival ED 50 Prostate
Experimental: FIG. 1 is a graph which compares the effects of the compound of Example 8 on normal human endothelial cells (AH-9) and human prostate cancer cells (DU145). Cells were exposed to the compound for seven days at the concentrations indicated. Cytotoxicity was assessed using the MTS assay.
(§1) In these experiments, cells were seeded at 400 cells per well 24 hours prior to addition of the test compound. Cells were grown at 37° C. in a humidified atmosphere of 95% air, 5% CO2 for 7 days with daily media changes. Cytotoxicity was assessed using the CellTiter 96 Aqueous Proliferation Assay (Promega, Madison, Wis.).
In a separate experiment (FIG. 1), normal human endothelial cells (AH-9) and human prostate cancer cells (DU145) were exposed to increasing concentrations of the compound of Example 8 for seven days.

[2] = tested on: breast cancer cell line HS578T; test: In vitro cytotoxicity, MTS assay, breast cancer cells; format: cell-based, human; conditions: 7 days exposure, dose causing death to 50% of cells, read-out: Cell Survival ED 50 Breast
Experimental: as §1

[3] = tested on: pancreas cancer cell line HS766T; test: In vitro cytotoxicity, MTS assay, pancreas cancer cells; format: cell-based, human; conditions: Homo sapiens, 168 h, 7 days exposure, dose causing death to 50% of cells, read-out: Cell Survival ED 50 Pancreas
Experimental: as §1

[4] = Mouse formalin test pain model, late phase; format: in vivo
Experimental: The formalin test was conducted using standard procedures (Hunskaar et al., J. Neurosci. Meth. 14:69-76 (1985). Mice (male CF-1, 20-25 g) were placed in Plexiglass jars for at least 1 hr to accommodate to the environment
The animals received either test drug at 5-50 mg/kg p.o. or the appropriate volume of vehicle (normal saline). Thirty minutes after p.o. dosing mice were injected with formalin (20 μl of 2.5% formaldehyde solution in saline) into the dorsal surface of the right hind paw.
All experiments were done in a blinded manner. The late phase of the formalin response was measured as licking/biting from 10-50 minutes after formalin injection. Differences between groups were analyzed by one-way analysis of variance (ANOVA), A P value ≦0.05 was considered significant. Reduction in the time spent licking/biting in the late phase of the formalin response is considered an indication of a reduction in chronic pain.

C[C@]12CC[C@@H]3c4ccc(OC(=O)N(CCCl)CCCl)cc4CC[C@H]3[C@@H]1CC[C@@H]2O [Estramustine, reference compound]
EC50 ([1]; Homo sapiens, DU-145, 168 h): 11000 nM

COc1cc([C@@H]2c3cc4c(cc3[C@@H](O[C@@H]3O[C@@H]5CO[C@@H](C)O[C@H]5[C@H](O)[C@H]3O)[C@H]3COC(=O)[C@H]23)OCO4)cc(OC)c1O [Etoposide, etoposide, reference compound]
EC50 ([2]; Homo sapiens, Hs-578T, 168 h): 400 nM
EC50 ([1]; Homo sapiens, DU-145, 168 h): 600 nM
EC50 [3]: 2000 nM

Cc1ccc(N(c2ccc(C)cc2)N2CCC(C#N)(c3ccccc3)CC2)cc1 [Example 14, 4-Cyano-1-[(N,N′-di-p-tolyl)amino]-4-phenylpiperidine]
EC50 ([2]; Homo sapiens, Hs-578T, 168 h): 4600 nM
EC50 ([1]; Homo sapiens, DU-145, 168 h): 10800 nM

Cc1ccc(NC(=N)N(CCCCN(C(=N)Nc2ccc(C)cc2)c2ccc(C)cc2)c2ccc(C)cc2)cc1 [Example 5, 1,4-Di-[(N,N′-di-p-tolyl)guanidinyl]butane]
EC50 ([2]; Homo sapiens, Hs-578T, 168 h): 300 nM
EC50 ([1]; Homo sapiens, DU-145, 168 h): 700 nM

Cc1ccc(NC(=NCCCOCCCCOCCCN=C(Nc2ccc(C)cc2)Nc2ccc(C)cc2)Nc2ccc(C)cc2)cc1 [Example 15]
EC50 [2]: 900 nM
EC50 [1]: 2500 nM

CC[C@]1(O)C[C@@H]2CN(CCc3c([nH]c4ccccc34)[C@@](C(=O)OC)(c3cc4c(cc3OC)N(C)[C@H]3[C@@](O)(C(=O)OC)[C@H](OC(C)=O)[C@]5(CC)C=CCN6CC[C@]43[C@@H]65)C2)C1 [Vinblastine, vinblastine, reference compound]
EC50 ([2]; Homo sapiens, Hs-578T, 168 h): 1200 nM
EC50 ([1]; Homo sapiens, DU-145, 168 h): 4000 nM
EC50 [3]: 200 nM

Cc1ccc(NC(=N)N(CCCCN)c2ccc(C)cc2)cc1 [Example 4, 1-Amino-4-[(N,N′-di-p-tolyl)guanidinyl]butane]
EC50 ([2]; Homo sapiens, Hs-578T, 168 h): 1700 nM
EC50 ([1]; Homo sapiens, DU-145, 168 h): 2500 nM
EC50 [3]: 200 nM

Cc1ccc(NC(=N)N(CCc2c[nH]c3ccccc23)c2ccc(C)cc2)cc1 [Example 9, 1-[(N,N′-di-p-tolyl)guanidinyl]-2-(3-indolyl)ethane]
EC50 ([2]; Homo sapiens, Hs-578T, 168 h): 4200 nM
EC50 ([1]; Homo sapiens, DU-145, 168 h): 5100 nM
EC50 [3]: 500 nM

Cc1ccc(NC(=N)N(CCN(C(=N)Nc2ccc(C)cc2)c2ccc(C)cc2)c2ccc(C)cc2)cc1 [Example 21, 1,2-Di-[(N,N′-di-p-tolyl)guanidinyl]ethane]
late phase pain versus control vehicle (post-hoc Newman-Kuels test) ([4]; 30 mg/kg orally): significant at P<0.05
effect on general behavior of the animals ([4]; at the doses effective in the formalin test, p.o.): did not affect the general behavior
time spent licking, late phase of formalin response (in words) ([4]; oral administration, 5-50 mg/kg, male CF-1 mice): dose-dependent reduction in the time spent licking

COc1cccc2c1C(=O)c1c(O)c3c(c(O)c1C2=O)C[C@@](O)(C(=O)CO)C[C@@H]3O[C@H]1C[C@H](N)[C@H](O)[C@H](C)O1 [Doxorubicin, doxorubicin, reference compound]
EC50 ([2]; Homo sapiens, Hs-578T, 168 h): 2000 nM
EC50 ([1]; Homo sapiens, DU-145, 168 h): 7000 nM
EC50 [3]: 300 nM

Cc1ccc(N=C(Nc2ccc(C)cc2)N2CCOCCOCCN(C(=Nc3ccc(C)cc3)Nc3ccc(C)cc3)CCOCCOCC2)cc1 [Example 16, 7,16-Di-[(N,N′-Di-p-tolyl)amidino]-1,4,10,13-tetraoxa-7,16-diazacyclooctadecane]
EC50 ([2]; Homo sapiens, Hs-578T, 168 h): 600 nM
EC50 ([1]; Homo sapiens, DU-145, 168 h): 1000 nM
